The values below come from patent publication US20210247385A1, “METHODS FOR ASSESSING TRANSENDOTHELIAL BARRIER INTEGRITY” (Hoffmann-La Roche Inc., priority 2018, published 2021).

One experiment has as its system hPSC-ECs (GFP+ cells). Briefly: Electric cell-substrate impedance sensing (ECIS) of transendothelial barrier integrity. The format is cell-based, human. Particulars: for effect on EC barrier in co-application with VEGFA (functional barrier assays): under both conditions, FIG. 5. The procedure: Electric cell-substrate impedance sensing. TBI was detected in real time using the ECIS® Z-theta system (Applied Biophysics, McAlister G C, Nusinow D P, Jedrychowski M P, Wuhr M, Huttlin E L, Erickson B K, et al. Analytical chemistry. 2014; 86(14):7150-8.) using 96 well array plates (96widf, Applied Biophysics) at 250 Hz frequency. Plates were coated with 100 μL of fibronectin (25 μg/mL; for 30 min at RT), fibronectin was replaced by complete media and electrodes were stabilized for 1 h on the system. Afterwards, media was removed and hPSC-ECs were seeded (10,000 cells per well). Cells were left for 2 days to reach full confluency and then treated with compounds with or without VEGFA (50 ng/mL). All the treatments were performed in triplicates.

Experiment [1] has as its target T1, TGFBR2 (Homo sapiens, UniProt P37173).
T1 construct: purchased DiscoveRx
Briefly: Kd determination (DiscoveRx) TGFBR2. In kind it is binding. Particulars: data not shown. The procedure:
(§1) Competitive protein kinase binding assays. Kinome scan (468 kinases) was performed by scanMAX (DiscoveRx) at 1 μM. Kinome scan procedure has been followed as described in (Bemas M J, Cardoso F L, Daley S K, Weinand M E, Campos A R, Ferreira A J, et al. Nature protocols. 2010; 5(7):1265-72.). Kd determination for ACVR1B, TGFRB1, TGFBR2 and KDR has been done in duplicates with 11-point 3-fold serial dilution starting from 30 μM (DiscoveRx). All the compounds were dissolved in DMSO. Binding constants (Kds) were calculated with a standard dose-response curve using the Hill equation and the The Hill Slope was set to −1. Curves were fitted using a non-linear least square fit with the Levenberg-Marquardt algorithm.

In experiment [2] the target is T1, TGFBR2. Briefly: Kinome scan (scanMAX, competitive protein kinase binding) TGFBR2. Particulars: 1 μM; data not shown. The procedure: as §1
The target in a further experiment is T2, BMPR1B (Homo sapiens, UniProt O00238).
T2 construct: purchased DiscoveRx
In words: Kinome scan (scanMAX, competitive protein kinase binding) BMPR1B. The following applies: 1 μM; data not shown. The procedure:
as §1

A further experiment relates to hPSC-EC. The procedure:
RNA isolation. RNA isolation from FACS sorted or cultured cells was performed using RNeasy micro kit or RNeasy mini kit (both Qiagen) or automated Maxwell Total RNA purification kit (Promega), all procedures included DNAse I digestion. Procedures were followed as described in the kit protocols.
RNA-sequencing and analysis. Total RNA from the FACS sorted or cell cultured treated samples was subjected to oligo (dT) capture and enrichment, and the resulting mRNA fraction was used to construct complementary DNA libraries. Transcriptome sequencing (RNA-seq) was performed on the Illumina HiSeq platform using the standard protocol (TruSeq Stranded Total RNA Library, Illumina) that generated approximately 30 million reads of 50 base-pair per sample. FACS sorted experiments for GFP+ and GFP− cells were performed using 6 replicates each from 2 different clones. The RNA-seq reads were then mapped to the human genome (NCBI build 37) by using GSNAP (Wu T D, Nacu S. Bioinformatics (Oxford, England). 2010; 26(7):873-81.). Comparison was done between 12 samples of GFP+ and GFP− samples from two clones. TGFBR2 inhibitor treated hPSC-EC samples were mapped to the human genome (hg19/Refseq) using STAR (Dobin A, Davis Calif., Schlesinger F, Drenkow J, Zaleski C, Jha S, et al. Bioinformatics (Oxford, England). 2013; 29(1):15-21.) and counting was performed using union mode of HtSeq (Anders S, Pyl P T, Huber W. Bioinformatics (Oxford, England). 2015; 31(2):166-9.). Differential expression was performed using Deseq2 (Dobin A, Davis C A, Schlesinger F, Drenkow J, Zaleski C, Jha S, et al. Bioinformatics (Oxford, England). 2013; 29(1):15-21.). Gene set enrichment analysis was performed using GSEA (Subramanian A, Tamayo P, Mootha V K, Mukherjee S, Ebert B L, Gillette M A, et al. Proceedings of the National Academy of Sciences of the United States of America. 2005; 102(43):15545-50.) using Hallmarks MsigDb database (Liberzon A, Birger C, Thorvaldsdottir H, Ghandi M, Mesirov J P, Tamayo P. Cell systems. 2015; 1(6):417-25.) using weighted p2 analysis, following default conditions with ignoring gene sets smaller than 15 and larger than 5000 genes.

Experiment [3] deals with CLDN5 transcriptional reporter (CLDN5-P2A-GFP) in hPSC-EC. In words: CLDN5-GFP reporter, percentage of GFP+ cells by FACS. The format is cell-based, human. The procedure: Fluorescence activated cell sorting and analysis. Human PSC-EC were dissociated from plates by Accutase (StemCell Technologies) and filtered before sorting with 30 μm filters (Miltenyi Biotec). Dissociated cells were kept in full media during sorting and sorted in cooled collection tubes with complete EC media supplemented with 20% FBS and 25 mM HEPES. Sorting was performed with BD FACS ARIA III (BD Biosciences) using 4-way purity precision mode. FACS plots were generated by Flowjo_V10 software. In case of RNA-seq minimum of 100,000 cells was sorted. After sorting, cells were spun down (610 g, 10 min) and lysed in 650 μL RLT lysis buffer (Qiagen)+β-mercaptoethanol (1%) and subsequently vortexed for 1 min at room temperature and snap frozen. In case of mass spectrometry analysis minimum of 10^6 cells was sorted, cells were washed with PBS^−(Life Technologies), spun down (110 g, 3 min), PBS was removed and cell pellets snap frozen.
Compound library screening with fluorescence activated cell readout. Compounds were plated in replicate plates, and each plate had DMSO treated controls. ECs (10,000 cells per well) were seeded on fibronectin coated plates in full media. Cells were treated 2 days after seeding and the FACS measurement using MACS quant analyzer 10 (Miltenyi biotec) was performed. Screen data was analyzed in Flowjo_V10 software.

Where [4] appears, read: RNA-seq 8 h and 48 h after treatment.

SMILES strings stand for the structures.

T1 sequence (P37173 23-567): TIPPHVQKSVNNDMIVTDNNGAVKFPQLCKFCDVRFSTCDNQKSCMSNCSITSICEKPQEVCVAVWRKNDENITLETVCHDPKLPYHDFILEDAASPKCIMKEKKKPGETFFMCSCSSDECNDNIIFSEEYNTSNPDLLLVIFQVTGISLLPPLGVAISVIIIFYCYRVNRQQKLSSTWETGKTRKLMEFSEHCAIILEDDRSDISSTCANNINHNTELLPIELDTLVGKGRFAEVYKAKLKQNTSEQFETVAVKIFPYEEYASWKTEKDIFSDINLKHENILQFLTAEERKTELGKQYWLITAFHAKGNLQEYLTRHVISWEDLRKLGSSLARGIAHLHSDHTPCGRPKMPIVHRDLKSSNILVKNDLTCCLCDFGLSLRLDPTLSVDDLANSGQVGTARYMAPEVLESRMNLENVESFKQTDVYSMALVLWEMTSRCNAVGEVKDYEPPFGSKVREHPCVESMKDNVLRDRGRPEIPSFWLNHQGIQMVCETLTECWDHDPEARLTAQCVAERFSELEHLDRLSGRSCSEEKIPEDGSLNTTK
T2 sequence (O00238 14-502): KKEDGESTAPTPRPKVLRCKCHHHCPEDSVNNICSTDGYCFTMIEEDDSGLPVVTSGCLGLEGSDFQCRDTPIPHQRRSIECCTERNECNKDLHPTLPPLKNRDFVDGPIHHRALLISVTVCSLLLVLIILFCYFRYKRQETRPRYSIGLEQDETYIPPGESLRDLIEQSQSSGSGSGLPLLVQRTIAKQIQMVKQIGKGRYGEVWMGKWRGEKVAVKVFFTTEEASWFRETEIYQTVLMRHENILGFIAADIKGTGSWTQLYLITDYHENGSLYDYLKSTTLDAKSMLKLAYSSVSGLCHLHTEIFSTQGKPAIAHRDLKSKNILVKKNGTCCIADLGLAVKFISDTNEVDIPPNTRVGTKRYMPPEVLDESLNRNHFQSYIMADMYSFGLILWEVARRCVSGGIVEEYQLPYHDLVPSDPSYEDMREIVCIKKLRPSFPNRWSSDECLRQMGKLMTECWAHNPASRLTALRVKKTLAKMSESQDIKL

`O=C(NC1CCOCC1)c1ccc(-c2cc(-c3c[nH]nc3-c3ccccn3)ccn2)cc1` [GW788388, 4-[4-[3-(2-Pyridinyl)-1H-pyrazol-4-yl]-2-pyridinyl]-N-(tetrahydro-2H-pyran-4-yl)-benzamide]: the “effect on EC barrier in co-application with VEGFA (functional barrier assays)” value (“effect on EC barrier in co-application” below) in the experiment on hPSC-ECs (GFP+ cells) (VEGFA 50 ng/mL) is reported as “prevented barrier disruption with VEGFA”. Moreover, the “Kd (inhibitory activities) for TGFBR2” value on TGFBR2 [1] is on record as “nanomolar inhibitory activities”. For the same molecule, the “inhibitory activity on TGFBR2, large kinase panel” value at TGFBR2 [2] is recorded as “strong inhibitory activity”. In addition, the “inhibition activity on BMPR1B, large kinase panel” value on BMPR1B is “weaker inhibition activity”.

As for `Cc1cccc(-c2n[nH]cc2-c2ccc3ncccc3n2)n1` [Repsox, 2-[3-(6-Methyl-2-pyridinyl)-1H-pyrazol-4-yl]-1,5-naphthyridine], the “rescue of TBI, impedance real time measurement” value with hPSC-ECs (GFP+ cells) (10 μM, co-treatment with 50 ng/mL VEGFA, GFP+ cells) was “rescues the loss-of TBI induced by VEGFA treatment”. Besides, in the experiment on hPSC-ECs (GFP+ cells) (VEGFA 50 ng/mL), the “effect on EC barrier in co-application” value is recorded as “strong EC barrier promoting effect”. Moreover, the “Kd (inhibitory activities) for TGFBR2” value on TGFBR2 [1] is listed as “nanomolar inhibitory activities”. For the same molecule, in the experiment on hPSC-EC (setting [4]), the “BMP signaling (ENG, LRG1 and BMPR2)” value is “potently inhibited”; the CLDN5 expression result was “strong upregulation”; the GSK3ß expression result is given as “downregulation”; the PLVAP expression result was “downregulation”. In the experiment on hPSC-EC (setting [4]), the RHOB expression entry is “Downregulation”; the “SMAD6 (TGFß antagonist) expression” value is reported as “inducing”; the “expression of KDR (VEGFR2) and PECAM1 (CD31)” value was “did not change”; the “expression of Wnt target genes (AXIN2, APCDD1, TNFRSF19) and receptors for Wnt FZD4 and LRP1” value is recorded as “upregulation”. In the experiment with hPSC-EC (setting [4]), the “expression of antagonists of BMP signaling (BMPER, GREM2 and GDF6)” value is on record as “Most striking upregulation”; the “expression of inflammation genes (NFATC2, JAK1, JAK3 and ICAM1)” value is “downregulate”; the “expression of other tight junctions or regulators of tight junctions (MARVELD3, GJA4, GJA5, IFITM3)” value is given as “Upregulation”. Moreover, the TGFß pathway regulation entry in the experiment on hPSC-EC (RNA-seq / GSEA Hallmarks MsigDB) is reported as “most potent compound”. In the experiment with hPSC-EC (RNA-seq after treatment), the “expression of SOX17 and KLF4” value is reported as “Induction”. Further, in the experiment with hPSC-EC (RNA-seq, data not shown), the “VEGFR1 (FLT1) expression” value was “upregulated”; the “expression of angiogenesis related genes (ESM1, ANGPTL4 and PPARGC1A)” value is reported as “most potent compound in downregulating”. In addition, on TGFBR2 [2], the “inhibitory activity on TGFBR2, large kinase panel” value was “strong inhibitory activity”. Moreover, the “inhibition activity on BMPR1B, large kinase panel” value on BMPR1B is given as “weaker inhibition activity”.

`NC(=O)c1ccc(-c2nc(-c3ccc4c(c3)OCO4)c(-c3ccccn3)[nH]2)cc1` [SB431542, 4-(4-Benzo[1,3]dioxol-5-yl-5-pyridin-2-yl-1H-imidazol-2-yl)-benzamide]: in the experiment with hPSC-ECs (GFP+ cells) (VEGFA 50 ng/mL), the “effect on EC barrier in co-application” value was “no effect”.

As for `Cc1cccc(-c2[nH]c(C(C)(C)C)nc2-c2ccc3c(c2)OCO3)n1` [SB505124], the “effect on EC barrier in co-application” value with hPSC-ECs (GFP+ cells) (VEGFA 50 ng/mL) is on record as “partial effect”.

As to `CCN(CC)CCNC(=O)c1c(C)[nH]c(/C=C2\C(=O)Nc3ccc(F)cc32)c1C` [SU11248], the “% of GFP+ cells” value in experiment [3] (5 μM SU11248 for 2 days, FACS) is reported as 99%. In experiment [3] (FACS 2 days after treatment, VEGFA 50 ng/mL), the “change in GFP+ (reporter gene positive) cells upon treatment” value is listed as “increase of reporter gene positive cells”. In the experiment on hPSC-ECs (GFP+ cells) (cells treated with 5 μM SU11248, VEGFA 50 ng/mL), the “resistance to barrier breakdown by VEGFA, ECIS” value is “resistant to barrier breakdown by VEGFA”.
